Key:
[1] = biological target: RAC-alpha serine/threonine-protein kinase (Homo sapiens) (UniProt P31749); test: Inhibition of human AKT1 at 500 nM by HotSpot assay relative to control
[2] = biological target: Serine/threonine-protein kinase B-raf (Homo sapiens) (UniProt P15056); test: Inhibition of human BRAF at 500 nM by HotSpot assay relative to control
[3] = biological target: Mitogen-activated protein kinase kinase kinase 8 (Homo sapiens) (UniProt P41279); test: Inhibition of human COT1 at 500 nM by HotSpot assay relative to control
[4] = biological target: MAP kinase-interacting serine/threonine-protein kinase 1 (Homo sapiens) (UniProt Q9BUB5); test: Inhibition of human MNK1 at 500 nM by HotSpot assay relative to control
[5] = biological target: Ribosomal protein S6 kinase alpha-4 (Homo sapiens) (UniProt O75676); test: Inhibition of human RPS6KA4 at 500 nM by HotSpot assay relative to control
[6] = biological target: T1, Protein kinase C iota type (Homo sapiens) (UniProt P41743); test: Inhibition of human PKCiota at 500 nM by HotSpot assay relative to control
T1 sequence (whole entry): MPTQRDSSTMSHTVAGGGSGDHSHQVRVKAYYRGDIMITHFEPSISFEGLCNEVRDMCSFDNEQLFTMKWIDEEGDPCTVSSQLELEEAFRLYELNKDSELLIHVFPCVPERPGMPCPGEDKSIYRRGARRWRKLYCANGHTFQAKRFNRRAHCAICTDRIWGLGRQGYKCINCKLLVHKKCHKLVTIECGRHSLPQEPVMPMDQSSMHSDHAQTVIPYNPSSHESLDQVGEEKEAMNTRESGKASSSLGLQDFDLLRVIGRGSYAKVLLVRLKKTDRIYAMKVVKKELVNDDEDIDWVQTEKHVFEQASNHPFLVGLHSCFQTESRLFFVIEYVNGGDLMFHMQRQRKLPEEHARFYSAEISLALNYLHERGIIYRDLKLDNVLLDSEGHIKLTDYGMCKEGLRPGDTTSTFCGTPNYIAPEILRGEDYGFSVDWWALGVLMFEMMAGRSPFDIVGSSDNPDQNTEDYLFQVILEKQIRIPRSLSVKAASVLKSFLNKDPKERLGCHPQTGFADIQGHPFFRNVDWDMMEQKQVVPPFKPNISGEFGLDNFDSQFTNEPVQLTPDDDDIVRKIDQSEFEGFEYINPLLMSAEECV

[7] = biological target: Serine/threonine-protein kinase PLK1 (Homo sapiens) (UniProt P53350); test: Inhibition of human PLK1 at 500 nM by HotSpot assay relative to control
[8] = biological target: T2, Serine/threonine-protein kinase TAO1 (Homo sapiens) (UniProt Q7L7X3); test: Inhibition of human TAOK1 at 500 nM by HotSpot assay relative to control
T2 sequence (whole entry): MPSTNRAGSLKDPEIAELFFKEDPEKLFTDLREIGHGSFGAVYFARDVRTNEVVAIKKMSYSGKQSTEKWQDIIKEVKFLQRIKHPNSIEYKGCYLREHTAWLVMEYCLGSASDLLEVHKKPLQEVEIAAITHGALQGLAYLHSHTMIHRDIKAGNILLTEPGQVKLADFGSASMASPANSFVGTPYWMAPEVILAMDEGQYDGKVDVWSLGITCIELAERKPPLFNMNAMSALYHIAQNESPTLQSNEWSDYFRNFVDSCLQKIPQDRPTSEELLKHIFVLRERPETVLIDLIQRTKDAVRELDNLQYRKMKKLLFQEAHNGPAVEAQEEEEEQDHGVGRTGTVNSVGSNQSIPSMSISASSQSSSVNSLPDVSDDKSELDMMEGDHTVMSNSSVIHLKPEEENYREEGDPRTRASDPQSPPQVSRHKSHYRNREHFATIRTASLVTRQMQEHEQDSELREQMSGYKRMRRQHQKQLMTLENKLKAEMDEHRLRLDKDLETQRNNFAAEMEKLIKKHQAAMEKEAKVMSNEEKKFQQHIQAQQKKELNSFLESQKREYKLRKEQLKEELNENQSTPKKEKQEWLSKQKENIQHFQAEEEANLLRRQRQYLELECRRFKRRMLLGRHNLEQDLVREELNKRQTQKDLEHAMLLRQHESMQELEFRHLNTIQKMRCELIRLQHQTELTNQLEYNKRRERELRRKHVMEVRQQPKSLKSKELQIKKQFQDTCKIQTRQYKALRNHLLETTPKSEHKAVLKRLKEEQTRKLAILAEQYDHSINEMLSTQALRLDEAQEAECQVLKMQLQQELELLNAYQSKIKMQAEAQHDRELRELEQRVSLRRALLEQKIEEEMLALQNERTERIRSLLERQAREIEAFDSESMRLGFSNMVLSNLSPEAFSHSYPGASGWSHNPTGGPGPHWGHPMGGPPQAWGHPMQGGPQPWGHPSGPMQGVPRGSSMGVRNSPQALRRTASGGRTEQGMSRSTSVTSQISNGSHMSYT

[9] = biological target: T3, Serine/threonine-protein kinase TBK1 (Homo sapiens) (UniProt Q9UHD2); test: Inhibition of human TBK1 at 500 nM by HotSpot assay relative to control
T3 sequence (whole entry): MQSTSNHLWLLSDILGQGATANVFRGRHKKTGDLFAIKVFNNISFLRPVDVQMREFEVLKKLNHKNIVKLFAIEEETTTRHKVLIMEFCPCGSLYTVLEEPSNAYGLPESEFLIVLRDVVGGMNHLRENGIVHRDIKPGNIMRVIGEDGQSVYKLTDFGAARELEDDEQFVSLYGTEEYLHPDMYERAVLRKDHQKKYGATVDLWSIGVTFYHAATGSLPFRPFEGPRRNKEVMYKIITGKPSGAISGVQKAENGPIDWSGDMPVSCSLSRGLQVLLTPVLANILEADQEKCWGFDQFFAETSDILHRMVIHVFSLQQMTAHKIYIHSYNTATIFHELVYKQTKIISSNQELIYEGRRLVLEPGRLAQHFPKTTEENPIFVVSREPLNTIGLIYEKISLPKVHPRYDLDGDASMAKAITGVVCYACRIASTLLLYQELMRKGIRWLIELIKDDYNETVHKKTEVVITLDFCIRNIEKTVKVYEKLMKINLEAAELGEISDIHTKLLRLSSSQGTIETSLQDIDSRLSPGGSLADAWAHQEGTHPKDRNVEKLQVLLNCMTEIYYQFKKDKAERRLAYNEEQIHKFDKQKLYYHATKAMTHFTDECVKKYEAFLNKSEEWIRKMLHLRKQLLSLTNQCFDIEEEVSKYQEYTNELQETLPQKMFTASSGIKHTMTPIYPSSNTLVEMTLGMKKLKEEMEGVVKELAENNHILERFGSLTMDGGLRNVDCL

Mitogen-activated protein kinase kinase kinase 8 (Homo sapiens), sequence (P41279 whole entry): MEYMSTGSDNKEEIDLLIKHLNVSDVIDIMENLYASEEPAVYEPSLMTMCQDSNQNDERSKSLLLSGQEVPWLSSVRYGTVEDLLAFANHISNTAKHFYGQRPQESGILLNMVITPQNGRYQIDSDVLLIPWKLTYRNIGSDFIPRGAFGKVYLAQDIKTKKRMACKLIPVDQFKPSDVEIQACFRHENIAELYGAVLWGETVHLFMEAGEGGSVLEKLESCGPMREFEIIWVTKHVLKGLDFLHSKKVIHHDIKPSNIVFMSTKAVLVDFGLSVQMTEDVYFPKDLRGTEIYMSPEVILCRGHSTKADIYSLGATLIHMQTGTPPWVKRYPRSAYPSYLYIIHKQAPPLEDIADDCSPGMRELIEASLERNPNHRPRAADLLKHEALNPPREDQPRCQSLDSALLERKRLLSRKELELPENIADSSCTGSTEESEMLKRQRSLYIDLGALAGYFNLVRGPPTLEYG
Serine/threonine-protein kinase B-raf (Homo sapiens), sequence (P15056 whole entry): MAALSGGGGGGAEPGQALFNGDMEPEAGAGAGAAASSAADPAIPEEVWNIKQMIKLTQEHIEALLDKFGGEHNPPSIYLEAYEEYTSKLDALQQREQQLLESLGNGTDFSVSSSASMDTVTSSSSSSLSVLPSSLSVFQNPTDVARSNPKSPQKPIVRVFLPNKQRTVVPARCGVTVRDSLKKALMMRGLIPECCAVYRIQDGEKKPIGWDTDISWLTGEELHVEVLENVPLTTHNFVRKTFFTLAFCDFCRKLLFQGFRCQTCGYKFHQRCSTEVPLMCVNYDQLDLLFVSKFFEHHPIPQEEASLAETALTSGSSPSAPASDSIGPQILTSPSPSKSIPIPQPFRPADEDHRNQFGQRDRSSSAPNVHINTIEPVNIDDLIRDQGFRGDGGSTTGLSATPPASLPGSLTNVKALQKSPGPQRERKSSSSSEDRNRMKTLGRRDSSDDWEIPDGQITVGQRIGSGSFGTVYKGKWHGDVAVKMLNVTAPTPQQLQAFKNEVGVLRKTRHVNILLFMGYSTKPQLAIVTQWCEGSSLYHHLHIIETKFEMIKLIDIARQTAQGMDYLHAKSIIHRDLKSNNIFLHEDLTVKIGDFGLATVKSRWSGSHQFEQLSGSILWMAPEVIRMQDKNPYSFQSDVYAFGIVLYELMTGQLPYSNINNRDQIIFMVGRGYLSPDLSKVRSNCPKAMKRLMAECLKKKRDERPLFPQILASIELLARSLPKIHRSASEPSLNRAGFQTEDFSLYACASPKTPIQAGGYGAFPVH
Serine/threonine-protein kinase PLK1 (Homo sapiens), sequence (P53350 whole entry): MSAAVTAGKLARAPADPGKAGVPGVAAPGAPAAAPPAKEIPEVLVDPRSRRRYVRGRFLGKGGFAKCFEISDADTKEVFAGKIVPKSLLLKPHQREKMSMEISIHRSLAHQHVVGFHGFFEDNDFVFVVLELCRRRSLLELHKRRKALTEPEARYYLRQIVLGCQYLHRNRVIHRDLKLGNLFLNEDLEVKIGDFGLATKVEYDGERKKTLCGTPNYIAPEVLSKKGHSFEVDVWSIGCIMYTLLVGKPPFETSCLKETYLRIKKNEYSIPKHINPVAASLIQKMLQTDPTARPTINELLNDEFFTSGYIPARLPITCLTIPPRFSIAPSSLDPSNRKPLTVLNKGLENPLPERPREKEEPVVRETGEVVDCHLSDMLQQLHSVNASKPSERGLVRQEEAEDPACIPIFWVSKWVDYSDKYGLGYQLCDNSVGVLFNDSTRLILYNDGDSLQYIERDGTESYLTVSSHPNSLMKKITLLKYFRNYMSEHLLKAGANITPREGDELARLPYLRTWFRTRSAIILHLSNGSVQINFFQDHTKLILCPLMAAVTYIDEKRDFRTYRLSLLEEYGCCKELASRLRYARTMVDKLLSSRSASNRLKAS
Ribosomal protein S6 kinase alpha-4 (Homo sapiens), sequence (O75676 whole entry, looked up): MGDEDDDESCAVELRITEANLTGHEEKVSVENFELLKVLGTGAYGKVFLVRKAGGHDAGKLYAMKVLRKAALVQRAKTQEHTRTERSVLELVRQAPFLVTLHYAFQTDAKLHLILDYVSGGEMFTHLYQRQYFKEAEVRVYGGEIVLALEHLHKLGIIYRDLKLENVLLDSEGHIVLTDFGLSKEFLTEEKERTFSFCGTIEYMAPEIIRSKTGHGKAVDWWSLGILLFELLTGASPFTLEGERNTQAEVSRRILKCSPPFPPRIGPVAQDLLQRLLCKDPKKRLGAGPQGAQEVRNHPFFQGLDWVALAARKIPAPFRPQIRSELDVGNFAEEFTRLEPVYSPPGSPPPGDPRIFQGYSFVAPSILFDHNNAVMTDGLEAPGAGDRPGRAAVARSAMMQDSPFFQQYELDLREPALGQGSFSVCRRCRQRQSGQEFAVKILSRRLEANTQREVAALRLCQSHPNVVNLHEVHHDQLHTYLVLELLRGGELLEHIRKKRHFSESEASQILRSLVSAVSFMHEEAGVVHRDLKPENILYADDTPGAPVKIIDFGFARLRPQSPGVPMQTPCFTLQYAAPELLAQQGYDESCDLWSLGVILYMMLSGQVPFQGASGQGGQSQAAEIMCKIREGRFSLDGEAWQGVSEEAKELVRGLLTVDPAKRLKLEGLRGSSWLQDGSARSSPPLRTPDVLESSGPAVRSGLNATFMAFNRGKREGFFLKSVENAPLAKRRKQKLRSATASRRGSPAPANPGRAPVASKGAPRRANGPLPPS
MAP kinase-interacting serine/threonine-protein kinase 1 (Homo sapiens), sequence (Q9BUB5 whole entry, looked up): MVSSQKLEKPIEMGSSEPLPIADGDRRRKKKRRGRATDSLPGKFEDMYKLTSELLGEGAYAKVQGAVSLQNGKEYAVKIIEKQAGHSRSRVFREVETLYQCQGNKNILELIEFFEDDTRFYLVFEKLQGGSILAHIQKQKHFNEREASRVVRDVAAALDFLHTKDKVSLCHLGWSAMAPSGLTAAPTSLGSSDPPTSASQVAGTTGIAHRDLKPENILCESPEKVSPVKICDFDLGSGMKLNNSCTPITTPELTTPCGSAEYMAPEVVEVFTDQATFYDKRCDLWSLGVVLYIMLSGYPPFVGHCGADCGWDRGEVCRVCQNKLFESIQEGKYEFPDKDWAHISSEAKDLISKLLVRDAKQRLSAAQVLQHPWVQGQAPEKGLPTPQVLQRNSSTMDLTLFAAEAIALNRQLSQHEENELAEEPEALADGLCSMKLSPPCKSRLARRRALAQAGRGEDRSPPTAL
RAC-alpha serine/threonine-protein kinase (Homo sapiens), sequence (P31749 whole entry): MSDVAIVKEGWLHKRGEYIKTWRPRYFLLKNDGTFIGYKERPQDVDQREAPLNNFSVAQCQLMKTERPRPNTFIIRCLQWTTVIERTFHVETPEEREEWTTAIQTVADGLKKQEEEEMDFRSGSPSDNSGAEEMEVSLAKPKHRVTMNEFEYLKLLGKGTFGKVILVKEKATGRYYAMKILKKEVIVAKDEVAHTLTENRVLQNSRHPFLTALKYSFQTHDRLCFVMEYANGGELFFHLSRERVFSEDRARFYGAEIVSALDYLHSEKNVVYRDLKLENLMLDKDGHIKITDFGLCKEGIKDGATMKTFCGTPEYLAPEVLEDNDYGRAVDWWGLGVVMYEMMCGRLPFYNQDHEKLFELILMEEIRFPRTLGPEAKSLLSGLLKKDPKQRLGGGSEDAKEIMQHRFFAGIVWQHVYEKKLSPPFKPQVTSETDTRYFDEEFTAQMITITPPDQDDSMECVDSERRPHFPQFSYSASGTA

Structure (SMILES) | inhibition [1] [%] | inhibition [2] [%] | inhibition [3] [%] | inhibition [4] [%] | inhibition [5] [%] | inhibition [6] [%] | inhibition [7] [%] | inhibition [8] [%] | inhibition [9] [%]
Oc1n[nH]c2nnc(-c3c(-c4ccccc4)nn4ccccc34)cc12 | 2.37 | 3.81 | 4.58 | 0.89 | 1.99 | 1.33 | 2.92 | 1.61 | -4.04
Nc1n[nH]c2nnc(-c3c(-c4ccccc4)nn4ccccc34)cc12 | 1.98 | 4.35 | 4.98 | 1.48 | 5.31 | 1.7 | 1.9 | 4.2 | -0.37

— ChEMBL document CHEMBL5653615 (J Biol Chem, 2013)
